From PMC11207022, “Enhanced Enzymatic Performance of Immobilized Pseudomonas fluorescens Lipase on ZIF-8@ZIF-67 and Its Application to the Synthesis of Neryl Acetate with Transesterification Reaction” (Molecules, 2024) come the findings set out here.

A word on the Km: it is the concentration of substrate that gives half-maximal velocity.

The assay deals with T1, Pseudomonas fluorescens lipase (PFL).
T1 construct: commercial lipase powder (Amano Enzyme Ltd., Nagoya, Japan), used without further treatment; free enzyme
Kind of assay: colorimetric p-nitrophenol release at […] nm; initial rates, linear regression (Lineweaver-Burk). The assay is classed as biochemical. The following applies: free enzyme; standard assay phosphate buffer pH 7.5, 40 °C, with Triton and acetone.

Take `CCCC(=O)Oc1ccc([N+](=O)[O-])cc1` [p-nitrophenol butyrate]: the Km was found to be 760 µM.
